The structures appear in SMILES notation.

In general, EC50 refers to the concentration that produces a half-maximal response.

For one assay, the system named is SUM159. The experiment in a line: CCK-8 cell viability assay on SUM159 human breast cancer cells. The settings on record: Homo sapiens, SUM159, 72 h, read-out: EC50 (uM, SUM159).
Experimental: The plate was incubated for 24 hours in a humidified incubator (37° C., 5% CO2). The compound from the present invention, at the appropriate test concentrations, are added to the culture media of the plate. The plate is incubated for 48 hours. CCK-8 (10 ul, see below) is added to each well. The plate is incubated from 1-4 h under conditions as described above, and the absorbance at 450 nm and 650 nm is measured with a plate reader.
Cell Counting was by CCK-8 using WST-8 (2-(2-methoxy-4-nitrophenyl)-3-(4-nitrophenyl)-5-(2,4-disulfophenyl)-2H-tetrazolium, monosodium salt), which produces a water-soluble formazan dye upon bioreduction in the presence of an electron carrier, 1-Methoxy PMS. CCK-8 solution is added directly to the cells. WST-8 is bioreduced by cellular dehydrogenases to an orange formazan product that is soluble in tissue culture medium. The amount of formazan produced is directly proportional to the number of living cells.
With `Cn1c2c(c(=O)n(Cc3ccc(Cl)cc3)c1=O)CN(Cc1cccc(C#N)c1)CC2` [Example 25, 3-((3-(4-chlorobenzyl)-1-methyl-2,4-dioxo-1,2,3,4,7,8-hexahydropyrido[4,3-d]pyrimidin-6(5H)-yl)methyl)benzonitrile], the EC50 worked out at 0.014 µM. Still for that read-out and setting: with `Cn1c2c(c(=O)n(Cc3ccc(C(F)(F)F)cc3)c1=O)CN(Cc1cccc(C#N)c1)CC2` [Example 26, 3-((1-methyl-2,4-dioxo-3-(4-(trifluoromethyl)benzyl)-1,2,3,4,7,8-hexahydropyrido[4,3-d]pyrimidin-6(5H)-yl)methyl)benzonitrile] the figure was 0.017 µM; with `Cc1ccccc1CN1C(=O)C2=C(CCN(Cc3ccccc3)C2)N2CCN=C12` [TIC10, 11-benzyl-7-[(2-methylphenyl)methyl]-2,5,7,11-tetraazatricyclo[7.4.0.0^2,6]trideca-1(9),5-dien-8-one, reference compound], 1.4 µM.

Still in this assay, the particulars now being: SUM159 cells, 72 hours, versus TIC10.
For `Cn1c2c(c(=O)n(Cc3ccc(Cl)cc3)c1=O)CN(Cc1cccc(C#N)c1)CC2` [Example 25, 3-((3-(4-chlorobenzyl)-1-methyl-2,4-dioxo-1,2,3,4,7,8-hexahydropyrido[4,3-d]pyrimidin-6(5H)-yl)methyl)benzonitrile], the “potency on human cancer lines in comparison to TIC10” value was “significant and unanticipated improvements in potency”. On the same count and under the same terms, for `Cn1c2c(c(=O)n(Cc3ccc(C(F)(F)F)cc3)c1=O)CN(Cc1cccc(C#N)c1)CC2` [Example 26, 3-((1-methyl-2,4-dioxo-3-(4-(trifluoromethyl)benzyl)-1,2,3,4,7,8-hexahydropyrido[4,3-d]pyrimidin-6(5H)-yl)methyl)benzonitrile] the value was “significant and unanticipated improvements in potency”.

Another assay concerns HCT116 (human colon cancer). The experiment in a line: CCK-8 cell viability assay on HCT116 human colon cancer cells. The assay is classed as cell-based. The conditions noted are these: HCT-116, 48 h, HCT116 cells, 48 hours compound incubation, CCK-8, read-out: EC50 (uM, HCT116). As for the experimental part: The plate is incubated for 48 hours.
Regarding `Cc1cccc(Cn2c(=O)[nH]c3c(c2=O)CN(Cc2ccccc2)CC3)c1` [Example 2, 6-benzyl-3-[(3-methylphenyl)methyl]-1H, 2H, 3H, 4H, 5H, 6H, 7H, 8H-pyrido[4,3-d]pyrimidine-2,4-dione], the EC50 is 3 µM. Still for that read-out and setting: for `Cc1cccc(Cn2c(=O)c3c(n(C)c2=O)CCN(Cc2ccccc2)C3)c1` [Example 3, 6-benxyl-1-methyl-3-[(3-methylphenyl)methyl]-1H, 2H, 3H, 4H, 5H, 6H, 7H, 8H-pyrido[4,3-d]pyrimidine-2,4-dione] the value was 0.18 µM; for `Cc1cccc(Cn2c(=O)c3c(n(C(C)C)c2=O)CCN(Cc2ccccc2)C3)c1` [Example 4, 6-benzyl-1-isopropyl-3-(3-methylbenzyl)-5,6,7,8-tetrahydropyrido[4,3-d]pyrimidine-2,4(1H,3H)-dione], 2 µM. The same measure, in the same setting: for `O=c1[nH]c2c(c(=O)n1Cc1ccc(Cl)cc1)CN(Cc1ccccc1)CC2` [Example 5, 6-benzyl-3-(4-chlorobenzyl)-5,6,7,8-tetrahydropyrido[4,3-d]pyrimidine-2,4(1H,3H)-dione] the value was 2.7 µM. As to `Cn1c2c(c(=O)n(Cc3ccc(Cl)cc3)c1=O)CN(Cc1ccccc1)CC2` [Example 6, 6-benzyl-3-(4-chlorobenzyl)-1-methyl-5,6,7,8-tetrahydropyrido[4,3-d]pyrimidine-2,4(1H,3H)-dione], the EC50 is 0.26 µM. Still for that read-out and setting: with `CC(C)n1c2c(c(=O)n(Cc3ccc(Cl)cc3)c1=O)CN(Cc1ccccc1)CC2` [Example 7, 6-benzyl-3-(4-chlorobenzyl)-1-isopropyl-5,6,7,8-tetrahydropyrido[4,3-d]pyrimidine-2,4(1H,3H)-dione] the figure was 6.6 µM; with `O=c1[nH]c2c(c(=O)n1Cc1ccc(C(F)(F)F)cc1)CN(Cc1ccccc1)CC2` [Example 8, 3-(4-(trifluoromethyl)benzyl)-6-benzyl-5,6,7,8-tetrahydropyrido[4,3-d]pyrimidine-2,4(1H,3H)-dione], 2.6 µM; with `Cn1c2c(c(=O)n(Cc3ccc(C(F)(F)F)cc3)c1=O)CN(Cc1ccccc1)CC2` [Example 9], 0.31 µM.

Regarding `CC(C)n1c2c(c(=O)n(Cc3ccc(C(F)(F)F)cc3)c1=O)CN(Cc1ccccc1)CC2` [Example 10, 3-(4-(trifluoromethyl)benzyl)-6-benzyl-5,6,7,8-tetrahydro-1-isopropylpyrido[4,3-d]pyrimidine-2,4(1H,3H)-dione], the EC50 came out at 7.1 µM.

For `CCn1c2c(c(=O)n(Cc3cccc(C(F)(F)F)c3)c1=O)CN(Cc1ccccc1)CC2` [Example 14, 3-(3-(trifluoromethyl)benzyl)-6-benzyl-1-ethyl-5,6,7,8-tetrahydropyrido[4,3-d]pyrimidine-2,4(1H,3H)-dione], the EC50 turned out to be 2.5 µM. Still for that read-out and setting: with `Cn1c2c(c(=O)n(Cc3cccc(Cl)c3)c1=O)CN(Cc1ccccc1)CC2` [Example 15, 3-(3-chlorobenzyl)-6-benzyl-5,6,7,8-tetrahydro-1-methylpyrido[4,3-d]pyrimidine-2,4(1H,3H)-dione] the figure was 3 µM. Same read-out and setting: with `Cn1c2c(c(=O)n(Cc3cccc(Br)c3)c1=O)CN(Cc1ccccc1)CC2` [Example 17, 6-benzyl-3-(3-bromobenzyl)-1-methyl-5,6,7,8-tetrahydropyrido[4,3-d]pyrimidine-2,4(1H,3H)-dione] the figure was 1.1 µM; with `C#Cc1cccc(CN2CCc3c(c(=O)n(Cc4ccc(C(F)(F)F)cc4)c(=O)n3C)C2)c1` [Example 18, 6-(3-ethynylbenzyl)-1-methyl-3-(4-(trifluoromethyl)benzyl)-5,6,7,8-tetrahydropyrido[4,3-d]pyrimidine-2,4(1H,3H)-dione], 1.4 µM. On the same count and under the same terms, with `C#Cc1cccc(CN2CCc3c(c(=O)n(Cc4ccccc4C)c(=O)n3C)C2)c1` [Example 19, 6-(3-ethynylbenzyl)-1-methyl-3-(2-methylbenzyl)-5,6,7,8-tetrahydropyrido[4,3-d]pyrimidine-2,4(1H,3H)-dione] the figure was 1.5 µM; with `C#Cc1cccc(CN2CCc3c(c(=O)n(Cc4cccc(C)c4)c(=O)n3C)C2)c1` [Example 20, 6-(3-ethynylbenzyl)-1-methyl-3-(3-methylbenzyl)-5,6,7,8-tetrahydropyrido[4,3-d]pyrimidine-2,4(1H,3H)-dione], 1 µM; with `C#Cc1cccc(CN2CCc3c(c(=O)n(Cc4ccc(Cl)cc4)c(=O)n3C)C2)c1` [Example 21, 3-(4-chlorobenzyl)-6-(3-ethynylbenzyl)-1-methyl-5,6,7,8-tetrahydropyrido[4,3-d]pyrimidine-2,4(1H,3H)-dione], 1.4 µM.

Consider `Cn1c2c(c(=O)n(Cc3ccc(C(F)(F)F)cc3)c1=O)CN(Cc1cccc(Cl)c1)CC2` [Example 22, 6-(3-chlorobenzyl)-1-methyl-3-(4-(trifluoromethyl)benzyl)-5,6,7,8-tetrahydropyrido[4,3-d]pyrimidine-2,4(1H,3H)-dione], for which the EC50 was determined as 0.1 µM.

Take `Cn1c2c(c(=O)n(Cc3ccc4c(c3)OCO4)c1=O)CN(Cc1ccccc1)CC2` [Example 23, 3-(benzo[d][1,3]dioxol-5-ylmethyl)-6-benzyl-1-methyl-5,6,7,8-tetrahydropyrido[4,3-d]pyrimidine-2,4(1H,3H)-dione]: the EC50 amounted to 2.5 µM. Same read-out and setting: for `Cn1c2c(c(=O)n(Cc3ccc(Br)cc3)c1=O)CN(Cc1cccc(C#N)c1)CC2` [Example 24, 3-((3-(4-bromobenzyl)-1-methyl-2,4-dioxo-1,2,3,4,7,8-hexahydropyrido[4,3-d]pyrimidin-6(5H)-yl)methyl)benzonitrile] the value was 0.022 µM. As for `Cn1c2c(c(=O)n(Cc3ccc(C(F)(F)F)cc3)c1=O)CN(Cc1cccc(C#N)c1)CC2` [Example 26, 3-((1-methyl-2,4-dioxo-3-(4-(trifluoromethyl)benzyl)-1,2,3,4,7,8-hexahydropyrido[4,3-d]pyrimidin-6(5H)-yl)methyl)benzonitrile], the EC50 came out at 0.5 µM. The same measure, in the same setting: for `CCn1c2c(c(=O)n(Cc3ccc(C(F)(F)F)cc3)c1=O)CN(Cc1cccc(C#N)c1)CC2` [Example 27, 3-((1-ethyl-2,4-dioxo-3-(4-(trifluoromethyl)benzyl)-1,2,3,4,7,8-hexahydropyrido[4,3-d]pyrimidin-6(5H)-yl)methyl)benzonitrile] the value was 1.9 µM; for `CCn1c2c(c(=O)n(Cc3ccc(Cl)cc3)c1=O)CN(Cc1cccc(C#N)c1)CC2` [Example 28, 3-((3-(4-chlorobenzyl)-1-ethyl-2,4-dioxo-1,2,3,4,7,8-hexahydropyrido[4,3-d]pyrimidin-6(5H)-yl)methyl)benzonitrile], 0.21 µM.

Still in this assay, the particulars now being: HCT-116, 48 h, read-out: EC50 (uM, HCT116).
For `Cn1c2c(c(=O)n(Cc3cccc(C(F)(F)F)c3)c1=O)CN(Cc1ccccc1)CC2` [Example 13], the EC50 worked out at 1.4 µM.

For the compound `Cn1c2c(c(=O)n(Cc3ccc(Cl)cc3)c1=O)CN(Cc1cccc(C#N)c1)CC2` [Example 25, 3-((3-(4-chlorobenzyl)-1-methyl-2,4-dioxo-1,2,3,4,7,8-hexahydropyrido[4,3-d]pyrimidin-6(5H)-yl)methyl)benzonitrile], the EC50 was found to be 0.74 µM. Still for that read-out and setting: for `Cc1ccccc1CN1C(=O)C2=C(CCN(Cc3ccccc3)C2)N2CCN=C12` [TIC10, 11-benzyl-7-[(2-methylphenyl)methyl]-2,5,7,11-tetraazatricyclo[7.4.0.0^2,6]trideca-1(9),5-dien-8-one, reference compound] the value was 2.8 µM.

(Values after patent publication US11091477B2 (Madera Therapeutics, LLC, priority 2016, dated 2021).)
